From patent publication US20260344668A1, “PHENYLPYRAZOLE COMPOUND, AND PLANT DISEASE CONTROL METHOD” (priority 2022, published 2026)

Columns and labels:
[1] = tested on: soybean rust fungus (Phakopsora pachyrhizi) having an amino acid substitution of F129L in a mitochondrial cytochrome b protein; assay: Test Example 7 Control Test Against Soybean Rust (leaf disk); assay type: in vivo; settings: 200 ppm, 10 μL per soybean leaf disk (cultivar: Kurosengoku), inoculated after 1 day
Experimental: (§1) The term of “non-treated well” in Test Example 4, Test Example 5, and Test Example 6 represents a well wherein a test was carried out under the same conditions as those described in each Test Example except for dispensing DMSO instead of a diluted solution with DMSO comprising the Present compound. Also, the term of “non-treated” in Test Examples 15 to 17 represents a test which was carried out under the same conditions as those described in each Test Example except for dispensing DMSO instead of a diluted solution with DMSO comprising the Present compound. Also, the term of “non-treated leaf disk” in Test Example 7 represents a leaf disk wherein a test was carried out under the same conditions as those described in the Test Example except for dispensing DMSO instead of a diluted solution with DMSO comprising the Present compound. Also, the term of “non-treated” in Test Example 10 and Test Example 11 means that a diluted solution with water of a formulation comprising the Present compound was not sprayed.
A true leaf of a soybean (cultivar: Kurosengoku) was cut into a diameter of 1 cm to prepare each leaf disk. To each well of a 24 well microplate was dispensed 1 mL of an agar medium (agar concentration 1.2%), and then one of said leaf disk was placed on the agar medium in each well. To a mixture of Sorpol (registered trademark) 1200KX (0.5 μL), DMSO (4.5 μL), and xylene (5 μL) was added a DMSO solution (20 μL) comprising a test compound (10000 ppm), and the resulting mixture was mixed. The resulting mixture was diluted with ion exchange water to prepare a mixture comprising a prescribed concentration of the test compound.
The resulting mixture was sprayed into each leaf disk at a ratio of 10 μL per leaf disk. After 1 day, an aqueous suspension of spores of soybean rust fungus (Phakopsora pachyrhizi) having an amino acid substitution of F129L in a mitochondrial cytochrome b protein (1.0×10^5/mL) was inoculated by spraying on each leaf disk. After the inoculation, the microplate was placed into an artificial climate chamber (Lighting: 6 hours, Lights-out: 18 hours, Temperature: 23° C., Humidity: 60%). After 1 day, the leaf disks were air-dried until water droplets on the surfaces of the leaf disks disappeared, and the microplate was placed into the artificial climate chamber again for 12 days. Then, lesion area of soybean rust was investigated. As a result, when the prescribed concentration was 200 ppm, each lesion area of leaf disk treated with any one of the Present compound 9, 10, 11, 13, 14, 15, 16, 17, 18, 20, 32, 33, 34, 35, 36, 37, 38, 39, 40, 42, 43, 44, 47, 48, 49, 50, 51, 52, 53, 55, 56, 57, 58, 62, 63, 64, 65, 66, 67, 68, 69, 70, 71, 73, 74, 75, 76, 77, 78, 79, 80, 81, 82, 83, 84, 85, 86, 87, 88, 89, 90, 91, 92, 93, 94, 95, 96, 97, 98, 99, 100, 101, or 102 as the test compound was 30% or less relative to the lesion area of non-treated leaf disk.

[2] = tested on: Cochliobolus miyabeanus; assay: Test Example 6 Control Test Against Rice Brown Spot Fungus (96 well titer plate growth); assay type: cell-based; settings: 1 μL of 150 ppm DMSO solution + 150 μL YB liquid medium, 23° C., 3 days, absorbance at 550 nm
Experimental: as §1
Each of the Present compound 17, 33, 36, 37, 39, 40, 41, 42, 43, 44, 48, 49, 50, 51, 52, 53, 62, 68, 69, 70, 71, 76, 77, 79, 80, 81, 82, 83, 84, or 97 was diluted with DMSO to obtain a diluted solution containing 150 ppm of each compound, and 1 μL of the diluted solution was dispensed into a titer plate (96 well), and thereto was then dispensed 150 μL of a YB liquid medium to which spores of Cochliobolus miyabeanus were inoculated in advance. This plate was cultured at 23° C. for 3 days, thereby allowing Cochliobolus miyabeanus to undergo proliferation, and the absorbance at 550 nm of each well of the titer plate was then measured to determine a degree of growth of Cochliobolus miyabeanus. As a result, the degree of growth in the well treated with each of the above Present compounds was 50% or less relative to the degree of growth in the non-treated well.

[3] = tested on: Phakopsora pachyrhizi; assay: Test Example 11 Control Test Against Soybean Rust (pot test, spraying before inoculation); assay type: in vivo; settings: 200 ppm foliage spray, soybeans (Kurosengoku), inoculated after 2 to 5 days
Experimental: as §1
A plastic pot was filled with soil, soybeans (cultivar: Kurosengoku) were seeded thereto, and cultured in a greenhouse for 10 to 14 days. The Present compound 9, 10, 11, 13, 14, 15, 17, 18, 20, 21, 22, 23, 26, 27, 33, 34, 35, 36, 37, 38, 39, 40, 41, 42, 43, 44, 46, 47, 53, 54, 55, 56, 57, 58, 66, 67, 68, 69, 70, 71, 73, 74, 75, 76, 77, 78, 79, 80, 81, 82, 83, 84, 85, 86, 87, 88, 89, 90, 91, 92, 93, 94, 95, 96, 97, 98, 99, 100, 101, or 102 formulated according to the method described in the Formulation Example 1 was mixed with water in such a way that the concentration thereof was 200 ppm, and the resulting mixture was sprayed to foliage of the above soybeans so as to adequately adhere onto the surfaces of leaves of the above soybeans. After spraying the mixture, the soybeans were air-dried. After 2 to 5 days, an aqueous suspension of spores of Phakopsora pachyrhizi was inoculated by spraying to the soybeans. After the inoculation, the soybeans were placed in a greenhouse at 23° C. in daytime and at 20° C. in nighttime under a humid condition for 1 to 2 day(s), then cultured in a greenhouse for 12 days, and then a lesion area was investigated. As a result, the lesion area in the soybeans treated with each of the above Present compound was 30% or less relative to the lesion area in the non-treated soybeans.

[4] = tested on: Phakopsora pachyrhizi; assay: Test Example 15 Control Test Against Soybean Rust Fungus (spore germination, 96 well titer plate); assay type: cell-based; settings: treatment concentration 1 ppm, 23° C., several hours
Experimental: as §1
The Present compound was diluted with DMSO to obtain a diluted solution containing 150 ppm of the compound, and 1 μL of the diluted solution was dispensed into a titer plate (96 well), and thereto was then dispensed 149 μL of an aqueous suspension (1.0×10^4/mL) of spores of Phakopsora pachyrhizi to which spores of Phakopsora pachyrhizi were suspended in advance. This plate was cultured at 23° C. for several hours, and then germinated spores of Phakopsora pachyrhizi were counted. As a result, when the treatment concentration was 1 ppm, the number of germinated spores in each well comprising any one of the Present compound 1, 11, 17, 18, 20, 23, 30, 33, 34, 35, 36, 37, 38, 39, 40, 41, 42, 43, 44, 46, 47, 48, 49, 50, 51, 52, 53, 54, 55, 56, 57, 58, 62, 63, 64, 65, 66, 67, 68, 69, 70, 71, 72, 73, 74, 75, 76, 77, 78, 79, 80, 81, 82, 83, 84, 85, 86, 87, 88, 89, 90, 91, 92, 93, 94, 95, 96, 97, 98, 99, 100, 101, or 102 as the test compound was 50% or less relative to the number of germinated spores in the non-treated well.

Structure (SMILES) | lesion area relative to the lesion area of non-treated leaf disk [1] [%] | degree of growth relative to the degree of growth in the non-treated well [2] [%] | lesion area relative to the lesion area in the non-treated soybeans [3] [%] | number of germinated spores relative to the non-treated well [4] [%]
O=S(=O)(c1cccs1)n1ccc(-c2cc(F)c(Br)c(F)c2)n1 [compound 33] | ≤ 30 | ≤ 50 | ≤ 30 | ≤ 50
O=S(=O)(c1ccoc1)n1ccc(-c2cc(F)c(Br)c(F)c2)n1 [compound 36] | ≤ 30 | ≤ 50 | ≤ 30 | ≤ 50
O=S(=O)(c1ccco1)n1ccc(-c2cc(F)c(Br)c(F)c2)n1 [compound 37] | ≤ 30 | ≤ 50 | ≤ 30 | ≤ 50
O=S(=O)(c1cccs1)n1ccc(-c2ccc(C(F)(F)F)c(F)c2)n1 [compound 39] | ≤ 30 | ≤ 50 | ≤ 30 | ≤ 50
O=S(=O)(c1cccs1)n1ccc(-c2ccc(Br)c(F)c2)n1 [compound 40] | ≤ 30 | ≤ 50 | ≤ 30 | ≤ 50
O=S(=O)(c1cccs1)n1ccc(-c2ccc(C3CC3)cc2)n1 [compound 42] | ≤ 30 | ≤ 50 | ≤ 30 | ≤ 50
Cc1ccc(-c2ccn(S(=O)(=O)c3cccs3)n2)cc1 [compound 43] | ≤ 30 | ≤ 50 | ≤ 30 | ≤ 50
O=[N+]([O-])c1ccc(-c2ccn(S(=O)(=O)c3cccs3)n2)cc1 [compound 44] | ≤ 30 | ≤ 50 | ≤ 30 | ≤ 50
O=S(=O)(c1cccnc1)n1ccc(-c2ccc(Br)c(F)c2)n1 [compound 53] | ≤ 30 | ≤ 50 | ≤ 30 | ≤ 50
O=S(=O)(c1cccs1)n1ccc(-c2ccc3nsnc3c2)n1 [compound 68] | ≤ 30 | ≤ 50 | ≤ 30 | ≤ 50
Cc1ccc(-c2ccn(S(=O)(=O)c3ccco3)n2)cc1F [compound 69] | ≤ 30 | ≤ 50 | ≤ 30 | ≤ 50
Cc1ccc(-c2ccn(S(=O)(=O)c3ccoc3)n2)cc1F [compound 70] | ≤ 30 | ≤ 50 | ≤ 30 | ≤ 50
Cc1ccc(-c2ccn(S(=O)(=O)c3cccs3)n2)cc1F [compound 71] | ≤ 30 | ≤ 50 | ≤ 30 | ≤ 50
